This is an account of results in patent publication US6110491A, “Compound-loaded liposomes and methods for their preparation” (Hermes Biosciences, Inc., priority 1997, dated 2000).

Data set [1] deals with Human nasopharyngeal epidermoid carcinoma (KB) cells. Kind of data set: Cytotoxicity, growth inhibition by tetrazolium assay (96 hour incubation). Type of data set: cell-based. The settings on record: read-out: 50% growth inhibitory concentration (IC50). How it is done:
Human nasopharyngeal epidermoid carcinoma (KB) cells were from American Type Culture Collection (ATCC, Rockville, M.D.). The cells were grown in RPMI 1640 medium supplemented with 10% heat inactivated fetal calf serum, harvested by trypsinization, and plated in 96-well tissue culture plates at 2×10^4 cells/well. After a 24 hour acclimation period, a solution of free doxorubicin or the doxorubicin liposomes described in Example 1 were added to the cells to achieve final doxorubicin concentrations of 0.125-8 μg/ml. "Empty" liposomes were added to control cells at matching concentrations of the lipid. After a 96 hour incubation period, viability of the cells was measured by tetrazolium assay (Carmichael, et al., 1987). 50% growth inhibitory concentrations (IC50) of the studied preparation were as follows: […]

Data set [2] is described as follows: Effect of membrane-active ion carriers on loading of doxorubicin into liposomes with entrapped potassium polyacrylate (Example 6, FIG. 1). Type of data set: physicochemical. The conditions noted are these: valinomycin, CCCP or nigericin vs. none (FIG. 1). The source says: The liposomes prepared according to the present invention can be clearly distinguished from similar liposomes prepared by pH gradient, or ammonium ion gradient methods, by the liposomal response to membrane-active ion carriers which destroy transmembrane electrochemical gradients. For example, CCCP is a membrane proton carrier which destroys transmembrane pH gradients and leads to quick release of a liposomal-entrapped compound.
In contrast, liposomes prepared according to this invention, load doxorubicin in the presence of CCCP or nigericin with nearly the same efficiency as in the absence of such membrane-active ion carriers. This is shown in FIG. 1, where the loading of doxorubicin into liposomes in the presence of valinomycin, CCCP or nigericin was determined as a function of time. The liposomes were prepared as described in Example 1 to have entrapped potassium polyacrylate.

Data set [3] is described as follows: Doxorubicin loading into liposomes with entrapped polyacrylate / chondroitin sulfate A (Examples 1, 3). It is filed as physicochemical. How it is done: 21.6 mg of polyacrylic acid (molecular weight 2,000; Aldrich Corporation, Milwaukee, Wis.) were dissolved in 3 ml of water and neutralized to pH 7.4 with NaOH to produce 100 milli-eq/L sodium polyacrylate solution. 10 mg of the mixture of egg PC, cholesterol, and PEG (molecular weight 2,000)-DSPE (Avanti Polar Lipids, Birmingham, Ala.) in the molar ratio of 10:5:1 was dissolved in chloroform, the solvent was evaporated in vacuum, the lipid film was incubated with shaking in 1 ml of the above polyacrylate solution, and the lipid dispersion was extruded under pressure through 2 stacked Nucleopore (Pleasanton, Calif.) membranes with pore size […]. […] To the so obtained liposomes, doxorubicin (Cetus Oncology, Norwalk, Conn.) was added at 200 nmol/μmol, of liposomal phospholipid. The mixture was incubated overnight at 37° C. with shaking, treated with Dowex 50W×4 (Sigma Chemical Co., St. Louis, Mo.), and equilibrated with NaCl-HEPES solution to remove non-encapsulated doxorubicin. The resulting liposomes were sterilized by filtration through a […] filter and assayed for doxorubicin by spectrophotometry and liposomal phospholipid by acid digestion-molybdene blue assay. […] Under similar conditions, doxorubicin loading into liposomes without entrapped sodium polyacrylate was 8 nmol/μmol of phospholipid.
Liposomes were prepared as in Example 1, except that inner buffer, instead of polyacrylic acid, contained 5 mg/ml of chondroitinsulfate A (Sigma Chemical Co., St. Louis, Mo.). After overnight incubation with doxorubicin ([…] of phospholipid) at pH 7.2, free drug was removed from the liposomes, and the liposomes were assayed as in Example 1. The doxorubicin content in the resulting liposomes was 26.0 nmol/μmol of phospholipid.

Data set [4] in a line: Doxorubicin loading into liposomes containing ammonium polyacrylate or sulfate in absence of ammonium ion gradient (Example 7). The settings on record: for Doxorubicin absorbed by liposomes: no ammonium ion gradient; for Doxorubicin incorporation into liposomes: outer Cl-. It is filed as physicochemical. The protocol: Liposomes with entrapped ammonium sulfate or ammonium polyacrylate were prepared from the lipid mixture of hydrogenated soybean phosphatidylcholine (Avanti PolarLipids, Ala., U.S.A.), cholesterol (Calbiochem, USA), and poly(ethylene glycol) (Mol. weight 2,000) derivative of distearoyl phosphatidyl ethanolamine (PEG-DSPE) (Sygena, Switzerland), at the molar ratio 60:40:6, by lipid film hydration, repetitive freezing-thawing at 60° C. (6 times) and extrusion through two stacked polycarbonate track-etched membranes with the pore size 100 nm at 60° C. (12 times). The bulk aqueous phase of the liposomes was exchanged by gel-filtration for the outer buffer, 0.2 M ammonium chloride, adjusted (when necessary) to pH 7.3 and buffered with 10 mM sodium hydroxyethylpiperazino-ethane sulfonate (HEPES). The inner (entrapped) solution had ammonium ion concentration of 200 milli-eqivalent/L, i.e. the same as the outer buffer (no ammonium ion gradient), and the anion composition and pH as indicated below. Polyacrylic acid with mol. weight of 2,000 (Aldrich Chemical Co.) was used. Doxorubicin was added to the liposomes at 2 mg for each 6-8 micro-mol of phospholipid, and incubated with shaking at 60° C., i.e. above the transition temperature of the lipid bilayer, for various times as specified below. […] Doxorubicin-loaded liposomes were separated from the free drug by gel-chromatography on Sephadex G-75, eluted with the outer buffer. Liposomal doxorubicin was assayed by spectrophotometry at 485 nm, phospholipid was quantitated by molybdate method after acid digestion of the liposomes.

For data set [5] the following is noted: liposomes loaded by the ammonium ion method (Haran, et al., 1993); cited from earlier work.
Data set [6] in a line: Doxorubicin precipitation by Inner Buffer anions (Example 9). The settings on record: for Doxorubicin precipitation: 1 mg/ml, 22° C., 3 hours. It is filed as physicochemical. The protocol:
Doxorubicin hydrochloride was added to the aliquots of Inner Buffers described in the Example 8 above to achieve final concentration of 1 mg/ml. The mixtures were briefly incubated at 60° C. to effect maximum drug dissolution, and further equilibrated at ambient temperature (22° C.) with gentle shaking for 3 hours. Precipitated doxorubicin was separated by centrifugation of an Eppendorf centrifuge (10,000 rpm, 5 min.), and the amount of doxorubicin in supernatant fluid was determined by spectrophotometry. The percent of drug precipitation was calculated as 100% less the percent of doxorubicin remaining in the supernatant fluid relative to the total added doxorubicin.

≈ marks a conversion by molar mass, not a printed value. Entries after “also recorded” stand apart in the source; their conditions may differ.

Turning to `COc1cccc2c1C(=O)c1c(O)c3c(c(O)c1C2=O)C[C@@](O)(C(=O)CO)C[C@@H]3O[C@H]1C[C@H](N)[C@H](O)[C@H](C)O1` [doxorubicin], in data set [1], the IC50 was 0.35 µg/mL (≈ 0.644 µM). Besides, in data set [2], the “Doxorubicin loading in presence of membrane-active ion carriers” value is on record as “substantially equal efficiency; also recorded: substantially unaffected”. For the same compound, the “Doxorubicin content in the resulting liposomes” value in data set [3] (entrapped chondroitin sulfate A 5 mg/ml, overnight, pH 7.2) is 26.0 nmol/μmol of phospholipid. Further, in data set [3] (entrapped sodium polyacrylate, egg PC/cholesterol/PEG-DSPE, doxorubicin 200 nmol/μmol, overnight 37° C.), the “Doxorubicin content of liposomes” value is reported as 129 nmol/μmol of liposomal phospholipid. The “Doxorubicin loading into liposomes” value in data set [3] (without entrapped sodium polyacrylate, similar conditions) is given as 8 nmol/μmol of phospholipid. Further, the “Doxorubicin absorbed by liposomes” value in data set [4] (ammonium polyacrylate liposomes) is given as “considerable amounts”; in data set [4] (ammonium sulfate liposomes, 60° C.) it was “very small amounts”. Besides, the Doxorubicin precipitate formation result in data set [4] (in the presence of polyacrylate anion, 60° C.) was “visibly precipitated”; in data set [4] (in the presence of sulfate anion, 60° C.), “did not form a detectable precipitate”. Besides, the “Doxorubicin incorporation into liposomes” value in data set [4] (inner SO4^2-, pH 7.3, 1 hour, 60° C.) was 6.1 ± 0.8 mg of drug/mmol of liposome ph; in data set [4] (inner SO4^2-, pH 7.3, 16 hours, 60° C.) it was 5.1 ± 0.2 mg of drug/mmol of liposome ph; in data set [4] (inner polyacrylate, pH 5.2, 1 hour, 60° C.), 59.7 ± 2.5 mg of drug/mmol of liposome ph; in data set [4] (inner polyacrylate, pH 7.3, 1 hour, 60° C.), 91.0 ± 2.8 mg of drug/mmol of liposome ph. Further, the “Doxorubicin release by nigericin” value in data set [5] is “quickly releases”. In data set [6] (Examples 8 and 9), the “correlation coefficient R, extent of drug loading vs. drug solubility in Inner Buffer” value worked out at 0.9043. In addition, the Doxorubicin precipitation is on record as 58.1% in data set [6] (inner buffer anion DTPA); 25.0% in data set [6] (inner buffer anion L(+)-tartrate); 1.1% in data set [6] (inner buffer anion chloride); 81.4% in data set [6] (inner buffer anion citrate); 0% in data set [6] (inner buffer anion methanesulfonate); 0% in data set [6] (inner buffer anion nitrate). Also, the values for the Doxorubicin precipitation in data set [6] (inner buffer anion phosphate), in data set [6] (inner buffer anion polyacrylate) and in data set [6] (inner buffer anion sulfate) were 73.7%, 98.4% and 47.5%, respectively.
